Patent US20260224716A1, “PTH ANALOGS FOR THE TREATMENT OF HYPOPARATHYROIDISM” (priority 2020, published 2026)
Values belong to the compound of their own block, whether it stands above or below them.

Experiments:
[1] = Cleavage half-life / conversion of PTH prodrugs in PBS pH 7.4, 37° C. by LC-MS; assay type: physicochemical; conditions: for half-life: PBS buffer, dipeptide cleavage from PTH prodrug, PBS pH 7.4, 37° C., read-out: Half life (converted)
Experimental: The resulting solution was incubated at 37° C. Aliquots were taken at designed time points and analyzed by LC-MS. […] Flow rate of 1 mL/min and a gradient of 10%-80% acetonitrile in water, with 0.1% trifluoroacetic acid over 10 min. […] The concentration of prodrug and drug were determined by their relative peak areas. The […] dissociation rate constant of the prodrug was determined by plotting the logarithm in the concentration of the prodrug at various time points.

[2] = biological target: T1, PTH1 receptor (Homo sapiens, UniProt Q03431); assay: Luciferase-based reporter gene assay for cAMP detection (HEK293 cells); assay type: cell-based; conditions: for potency at the PTH receptor: luciferase reporter of cAMP production
T1 construct: expressed in transfected cells; host or cells: HEK293
T1 sequence (Q03431 27-593): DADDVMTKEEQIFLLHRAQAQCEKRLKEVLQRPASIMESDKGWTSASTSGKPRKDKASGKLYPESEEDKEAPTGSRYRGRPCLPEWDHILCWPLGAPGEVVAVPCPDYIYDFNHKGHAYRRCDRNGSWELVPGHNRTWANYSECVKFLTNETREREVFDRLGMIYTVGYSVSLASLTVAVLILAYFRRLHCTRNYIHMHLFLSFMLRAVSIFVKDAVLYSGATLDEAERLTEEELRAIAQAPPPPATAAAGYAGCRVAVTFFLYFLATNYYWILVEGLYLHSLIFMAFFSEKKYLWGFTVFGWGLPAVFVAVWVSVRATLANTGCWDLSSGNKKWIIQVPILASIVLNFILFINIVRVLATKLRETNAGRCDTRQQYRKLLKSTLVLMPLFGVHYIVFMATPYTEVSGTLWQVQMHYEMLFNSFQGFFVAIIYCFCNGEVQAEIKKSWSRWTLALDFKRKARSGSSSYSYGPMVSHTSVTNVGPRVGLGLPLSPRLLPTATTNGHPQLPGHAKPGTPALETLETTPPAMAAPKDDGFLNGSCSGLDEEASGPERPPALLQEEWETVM
Experimental: At the end of the incubation, 50 μL of Steady-Lite Plus (PerkinElmer, Waltham, MA) were added to each well. The plate was shaken briefly, incubated four minutes and light output was measured on an EnSpire Alpha Multi-mode Plate Reader (PerkinElmer, Waltham, MA).

half-life [1]: 71 h | Half life, fold faster than Sar (vs SEQ ID NO: 52) ([1]; comparator SEQ ID NO: 52): 1.8 faster than Sar
Compound: CC[C@H](C)[C@H](NC(=O)[C@H](CCC(=O)O)NC(=O)[C@H](CO)NC(=O)[C@@H](NC(=O)[C@H](CO)NC(=O)[C@H](C)N(C)C(=O)[C@@H](N)CCCCNC(=O)CC[C@H](NC(=O)CCCCCCCCCCCCCCCCC(=O)O)C(=O)O)C(C)C)C(=O)N[C@@H](CCC(N)=O)C(=O)N[C@@H](CC(C)C)C(=O)N[C@@H](CCSC)C(=O)N[C@@H](Cc1c[nH]cn1)C(=O)N[C@@H](CC(N)=O)C(=O)N[C@@H](CC(C)C)C(=O)NCC(=O)N[C@@H](CCCCN)C(=O)N[C@@H](Cc1c[nH]cn1)C(=O)N[C@@H](CC(C)C)C(=O)N[C@@H](CC(N)=O)C(=O)N[C@@H](CO)C(=O)N[C@@H](CCSC)C(=O)N[C@@H](CCC(=O)O)C(=O)N[C@@H](CCCNC(=N)N)C(=O)N[C@H](C(=O)N[C@@H](CCC(=O)O)C(=O)N[C@@H](Cc1c[nH]c2ccccc12)C(=O)N[C@@H](CC(C)C)C(=O)N[C@@H](CCCNC(=N)N)C(=O)N[C@@H](CCCCN)C(=O)N[C@@H](CCCCN)C(=O)N[C@@H](CC(C)C)C(=O)N[C@@H](CCC(N)=O)C(=O)N[C@@H](CC(=O)O)C(=O)N[C@H](C(=O)N[C@@H](Cc1c[nH]cn1)C(=O)N[C@@H](CC(N)=O)C(=O)N[C@@H](Cc1ccccc1)C(=O)O)C(C)C)C(C)C [SEQ ID NO: 53]

half-life [1]: 250 h | Half life, fold slower than Sar (vs SEQ ID NO: 52) ([1]; comparator SEQ ID NO: 52): 1.9 slower than Sar
Compound: CC[C@H](C)[C@H](NC(=O)[C@H](CCC(=O)O)NC(=O)[C@H](CO)NC(=O)[C@@H](NC(=O)[C@H](CO)NC(=O)[C@@H]1CCCCN1C(=O)[C@@H](N)CCCCNC(=O)CC[C@H](NC(=O)CCCCCCCCCCCCCCCCC(=O)O)C(=O)O)C(C)C)C(=O)N[C@@H](CCC(N)=O)C(=O)N[C@@H](CC(C)C)C(=O)N[C@@H](CCSC)C(=O)N[C@@H](Cc1c[nH]cn1)C(=O)N[C@@H](CC(N)=O)C(=O)N[C@@H](CC(C)C)C(=O)NCC(=O)N[C@@H](CCCCN)C(=O)N[C@@H](Cc1c[nH]cn1)C(=O)N[C@@H](CC(C)C)C(=O)N[C@@H](CC(N)=O)C(=O)N[C@@H](CO)C(=O)N[C@@H](CCSC)C(=O)N[C@@H](CCC(=O)O)C(=O)N[C@@H](CCCNC(=N)N)C(=O)N[C@H](C(=O)N[C@@H](CCC(=O)O)C(=O)N[C@@H](Cc1c[nH]c2ccccc12)C(=O)N[C@@H](CC(C)C)C(=O)N[C@@H](CCCNC(=N)N)C(=O)N[C@@H](CCCCN)C(=O)N[C@@H](CCCCN)C(=O)N[C@@H](CC(C)C)C(=O)N[C@@H](CCC(N)=O)C(=O)N[C@@H](CC(=O)O)C(=O)N[C@H](C(=O)N[C@@H](Cc1c[nH]cn1)C(=O)N[C@@H](CC(N)=O)C(=O)N[C@@H](Cc1ccccc1)C(=O)O)C(C)C)C(C)C [SEQ ID NO: 54]

potency at the PTH receptor ([2]; FIG. 4): decreases the potency
Compound: k(N-Me)GSVSEIQLMHNLGKHLNSMERVEWLRKKLQDVHK(γE-(miniPEG)2-γE-COC16H32CO2H)-OH [SEQ ID NO: 80]

half-life [1]: 47 h | Half life, fold faster (vs SEQ ID NO: 45) ([1]; comparator SEQ ID NO: 45): 1.9 faster than Sar
Compound: CC[C@H](C)[C@H](NC(=O)[C@H](CCC(=O)O)NC(=O)[C@H](CO)NC(=O)[C@@H](NC(=O)[C@H](CO)NC(=O)CN(C(=O)[C@H](N)CCCCNC(=O)CC[C@H](NC(=O)CCCCCCCCCCCCCCCCC(=O)O)C(=O)O)C(C)C)C(C)C)C(=O)N[C@@H](CCC(N)=O)C(=O)N[C@@H](CC(C)C)C(=O)N[C@@H](CCSC)C(=O)N[C@@H](Cc1c[nH]cn1)C(=O)N[C@@H](CC(N)=O)C(=O)N[C@@H](CC(C)C)C(=O)NCC(=O)N[C@@H](CCCCN)C(=O)N[C@@H](Cc1c[nH]cn1)C(=O)N[C@@H](CC(C)C)C(=O)N[C@@H](CC(N)=O)C(=O)N[C@@H](CO)C(=O)N[C@@H](CCSC)C(=O)N[C@@H](CCC(=O)O)C(=O)N[C@@H](CCCNC(=N)N)C(=O)N[C@H](C(=O)N[C@@H](CCC(=O)O)C(=O)N[C@@H](Cc1c[nH]c2ccccc12)C(=O)N[C@@H](CC(C)C)C(=O)N[C@@H](CCCNC(=N)N)C(=O)N[C@@H](CCCCN)C(=O)N[C@@H](CCCCN)C(=O)N[C@@H](CC(C)C)C(=O)N[C@@H](CCC(N)=O)C(=O)N[C@@H](CC(=O)O)C(=O)N[C@H](C(=O)N[C@@H](Cc1c[nH]cn1)C(=O)N[C@@H](CC(N)=O)C(=O)N[C@@H](Cc1ccccc1)C(=O)O)C(C)C)C(C)C [SEQ ID NO: 46]

potency at the PTH receptor ([2]; FIGS. 3A, 3B): decreases the potency | EC50 ([2]; HEK293 cells, PTH1 receptor, cAMP-responsive luciferase, 5 hours, read-out: Potency EC50): 0.0455 µM
Compound: CC[C@H](C)[C@H](NC(=O)[C@H](CCC(=O)O)NC(=O)[C@H](CO)NC(=O)[C@@H](NC(=O)[C@H](CO)NC(=O)CN(C)C(=O)[C@H](N)CCCCNC(=O)CC[C@H](NC(=O)CCCCCCCCCCCCCCCCC(=O)O)C(=O)O)C(C)C)C(=O)N[C@@H](CCC(N)=O)C(=O)N[C@@H](CC(C)C)C(=O)N[C@@H](CCSC)C(=O)N[C@@H](Cc1c[nH]cn1)C(=O)N[C@@H](CC(N)=O)C(=O)N[C@@H](CC(C)C)C(=O)NCC(=O)N[C@@H](CCCCN)C(=O)N[C@@H](Cc1c[nH]cn1)C(=O)N[C@@H](CC(C)C)C(=O)N[C@@H](CC(N)=O)C(=O)N[C@@H](CO)C(=O)N[C@@H](CCSC)C(=O)N[C@@H](CCC(=O)O)C(=O)N[C@@H](CCCNC(=N)N)C(=O)N[C@H](C(=O)N[C@@H](CCC(=O)O)C(=O)N[C@@H](Cc1c[nH]c2ccccc12)C(=O)N[C@@H](CC(C)C)C(=O)N[C@@H](CCCNC(=N)N)C(=O)N[C@@H](CCCCN)C(=O)N[C@@H](CCCCN)C(=O)N[C@@H](CC(C)C)C(=O)N[C@@H](CCC(N)=O)C(=O)N[C@@H](CC(=O)O)C(=O)N[C@H](C(=O)N[C@@H](Cc1c[nH]cn1)C(=O)N[C@@H](CCC(N)=O)C(=O)N[C@@H](Cc1ccccc1)C(=O)O)C(C)C)C(C)C [SEQ ID NO: 61]

potency at the PTH receptor ([2]; FIGS. 3A, 3B): decreases the potency
Compound: (dK)K(γE-COC16H32CO2H)GSVSEIQLMHNLGKHLNSMERVEWLRKKLQDVHNF [SEQ ID NO: 10, acylated dipeptide attached to PTH (1-34)]

half-life [1]: 130 h | Half life, fold slower than dK (vs SEQ ID NO: 45) ([1]; comparator SEQ ID NO: 45): 1.4 slower than dK
Compound: CC[C@H](C)[C@H](NC(=O)[C@H](CCC(=O)O)NC(=O)[C@H](CO)NC(=O)[C@@H](NC(=O)[C@H](CO)NC(=O)CN(C)C(=O)[C@@H](N)CCCCNC(=O)CC[C@H](NC(=O)CCCCCCCCCCCCCCCCC(=O)O)C(=O)O)C(C)C)C(=O)N[C@@H](CCC(N)=O)C(=O)N[C@@H](CC(C)C)C(=O)N[C@@H](CCSC)C(=O)N[C@@H](Cc1c[nH]cn1)C(=O)N[C@@H](CC(N)=O)C(=O)N[C@@H](CC(C)C)C(=O)NCC(=O)N[C@@H](CCCCN)C(=O)N[C@@H](Cc1c[nH]cn1)C(=O)N[C@@H](CC(C)C)C(=O)N[C@@H](CC(N)=O)C(=O)N[C@@H](CO)C(=O)N[C@@H](CCSC)C(=O)N[C@@H](CCC(=O)O)C(=O)N[C@@H](CCCNC(=N)N)C(=O)N[C@H](C(=O)N[C@@H](CCC(=O)O)C(=O)N[C@@H](Cc1c[nH]c2ccccc12)C(=O)N[C@@H](CC(C)C)C(=O)N[C@@H](CCCNC(=N)N)C(=O)N[C@@H](CCCCN)C(=O)N[C@@H](CCCCN)C(=O)N[C@@H](CC(C)C)C(=O)N[C@@H](CCC(N)=O)C(=O)N[C@@H](CC(=O)O)C(=O)N[C@H](C(=O)N[C@@H](Cc1c[nH]cn1)C(=O)N[C@@H](CC(N)=O)C(=O)N[C@@H](Cc1ccccc1)C(=O)O)C(C)C)C(C)C [SEQ ID NO: 52]

half-life [1]: 49 h | Half life, fold faster (vs SEQ ID NO: 45) ([1]; comparator SEQ ID NO: 45): 1.8 faster without
Compound: CC[C@H](C)[C@H](NC(=O)[C@H](CCC(=O)O)NC(=O)[C@H](CO)NC(=O)[C@@H](NC(=O)[C@H](CO)NC(=O)CN(C)C(=O)[C@H](N)CCCCN)C(C)C)C(=O)N[C@@H](CCC(N)=O)C(=O)N[C@@H](CC(C)C)C(=O)N[C@@H](CCSC)C(=O)N[C@@H](Cc1c[nH]cn1)C(=O)N[C@@H](CC(N)=O)C(=O)N[C@@H](CC(C)C)C(=O)NCC(=O)N[C@@H](CCCCN)C(=O)N[C@@H](Cc1c[nH]cn1)C(=O)N[C@@H](CC(C)C)C(=O)N[C@@H](CC(N)=O)C(=O)N[C@@H](CO)C(=O)N[C@@H](CCSC)C(=O)N[C@@H](CCC(=O)O)C(=O)N[C@@H](CCCNC(=N)N)C(=O)N[C@H](C(=O)N[C@@H](CCC(=O)O)C(=O)N[C@@H](Cc1c[nH]c2ccccc12)C(=O)N[C@@H](CC(C)C)C(=O)N[C@@H](CCCNC(=N)N)C(=O)N[C@@H](CCCCN)C(=O)N[C@@H](CCCCN)C(=O)N[C@@H](CC(C)C)C(=O)N[C@@H](CCC(N)=O)C(=O)N[C@@H](CC(=O)O)C(=O)N[C@H](C(=O)N[C@@H](Cc1c[nH]cn1)C(=O)N[C@@H](CC(N)=O)C(=O)N[C@@H](Cc1ccccc1)C(=O)N[C@@H](CCCCNC(=O)CC[C@H](NC(=O)CCCCCCCCCCCCCCCCC(=O)O)C(=O)O)C(N)=O)C(C)C)C(C)C [SEQ ID NO: 57]
